Experimental data taken from patent US10738045B2, “Pesticidally active heterocyclic derivatives with sulphur and cyclopropyl containing substituents” (SYNGENTA PARTICIPATIONS AG, priority 2015, dated 2020).

Key:
Test in all cases: whole plant or invertebrate
Assay type in all cases: in vivo
[1] = test system: Diabrotica balteata (Corn Root Worm); conditions: 96 h, application rate of 200 ppm, L2 larvae, 4 days after infestation, read-out: effect in at least one of the two categories (mortality or growth inhibition)
Description: Maize sprouts placed onto an agar layer in 24-well microtiter plates were treated with aqueous test solutions prepared from 10,000 ppm DMSO stock solutions by spraying. After drying, the plates were infested with L2 larvae (6 to 10 per well). The samples were assessed for mortality and growth inhibition in comparison to untreated samples 4 days after infestation.

[2] = test system: Euschistus heros (Neotropical Brown Stink Bug); conditions: in Glycine max, 120 h, application rate of 200 ppm, N2 nymphs, 5 days after infestation, read-out: effect in at least one of the two categories (mortality or growth inhibition)
Description: Soybean leaves on agar in 24-well microtiter plates were sprayed with aqueous test solutions prepared from 10,000 ppm DMSO stock solutions. After drying the leaves were infested with N2 nymphs. The samples were assessed for mortality and growth inhibition in comparison to untreated samples 5 days after infestation.

[3] = test system: Plutella xylostella (Diamond Back Moth); conditions: 120 h, application rate of 200 ppm, L2 larvae, 5 days after infestation, read-out: effect in at least one of the two categories (mortality or growth inhibition)
Description: 24-well microtiter plates with artificial diet were treated with aqueous test solutions prepared from 10,000 ppm DMSO stock solutions by pipetting. After drying, the plates were infested with L2 larvae (10 to 15 per well). The samples were assessed for mortality and growth inhibition in comparison to untreated samples 5 days after infestation.

[4] = test system: Spodoptera littoralis (Egyptian Cotton Leaf Worm); conditions: foliar, 72 h, application rate of 200 ppm, L1 larvae, 3 days after infestation, read-out: control (mortality, anti-feeding effect or growth inhibition)
Description: Cotton leaf discs were placed onto agar in 24-well microtiter plates and sprayed with aqueous test solutions prepared from 10,000 ppm DMSO stock solutions. After drying the leaf discs were infested with five L1 larvae. The samples were assessed for mortality, anti-feeding effect, and growth inhibition in comparison to untreated samples 3 days after infestation.

[5] = test system: Frankliniella occidentalis (Western Flower Thrips); conditions: foliar, 168 h, application rate of 200 ppm, sunflower leaf discs, population of mixed ages, 7 days after infestation
Description: (§1) Sunflower leaf discs were placed on agar in 24-well microtiter plates and sprayed with aqueous test solutions prepared from 10,000 DMSO stock solutions. After drying the leaf discs were infested with a Frankliniella population of mixed ages. The samples were assessed for mortality 7 days after infestation.

[6] = test system: Myzus persicae (Green Peach Aphid); conditions: foliar, 144 h, application rate of 200 ppm, sunflower leaf discs, population of mixed ages, 6 days after infestation
Description: Sunflower leaf discs were placed onto agar in a 24-well microtiter plate and sprayed with aqueous test solutions prepared from 10,000 ppm DMSO stock solutions. After drying, the leaf discs were infested with an aphid population of mixed ages. The samples were assessed for mortality 6 days after infestation.

[7] = test system: Spodoptera littoralis (Egyptian Cotton Leaf Worm); conditions: 144 h, test rate of 12.5 ppm, lettuce grown on treated agar, 6 days after infestation, read-out: effect in at least one of the three categories (mortality, anti-feeding, or growth inhibition)
Excerpt: Test compounds were applied by pipette from 10,000 ppm DMSO stock solutions into 24-well plates and mixed with agar. Lettuce seeds were placed onto the agar and the multi well plate was closed by another plate which contained also agar. After 7 days the compound was absorbed by the roots and the lettuce grew into the lid plate. The lettuce leaves were then cut off into the lid plate. Spodoptera eggs were pipetted through a plastic stencil onto a humid gel blotting paper and the lid plate was closed with it. The samples were assessed for mortality, anti-feedant effect and growth inhibition in comparison to untreated samples 6 days after infestation.

[8] = test system: Bemisia tabaci (Cotton White Fly); conditions: foliar, 144 h, application rate of 200 ppm, cotton leaf discs, adult white flies, 6 days after incubation
Description: Cotton leaf discs were placed on agar in 24-well microtiter plates and sprayed with aqueous test solutions prepared from 10,000 ppm DMSO stock solutions. After drying the leaf discs were infested with adult white flies. The samples were checked for mortality 6 days after incubation.

[9] = test system: Thrips tabaci (Onion Thrips); conditions: foliar, 144 h, application rate of 200 ppm, sunflower leaf discs, population of mixed ages, 6 days after infestation
Description: as §1, with “10,000 ppm” for “10,000”, “thrips” for “Frankliniella”, “6” for “7”

[10] = test system: Myzus persicae (Green Peach Aphid); conditions: 144 h, test rate of 24 ppm, roots of pea seedlings in test solution, 6 days
Description: Roots of pea seedlings infested with an aphid population of mixed ages were placed directly into aqueous test solutions prepared from 10,000 DMSO stock solutions. The samples were assessed for mortality 6 days after placing seedlings into test solutions.

[11] = test system: Tetranychus urticae (Two-Spotted Spider Mite); conditions: foliar, 192 h, application rate of 200 ppm, bean leaf discs, mixed population (mobile stages), 8 days after infestation
Description: Bean leaf discs on agar in 24-well microtiter plates were sprayed with aqueous test solutions prepared from 10,000 ppm DMSO stock solutions. After drying the leaf discs were infested with a mite population of mixed ages. The samples were assessed for mortality on mixed population (mobile stages) 8 days after infestation.

CCS(=O)(=O)c1cc(-n2ccc(C(F)(F)F)n2)cnc1-c1nc2cc(C(F)(F)F)n(C3CC3)c(=O)c2n1C [Compound A3, 5-cyclopropyl-2-[3-ethylsulfonyl-5-[3-(trifluoromethyl)pyrazol-1-yl]-2-pyridyl]-3-methyl-6-(trifluoromethyl)imidazo[4,5-c]pyridin-4-one]
≥ 80%: percent effect (mortality or growth inhibition) at 200 ppm [1] | percent effect (mortality or growth inhibition) at 200 ppm [2] | percent effect (mortality or growth inhibition) at 200 ppm [3] | percent control (mortality, anti-feedant effect or growth inhibition) at 200 ppm [4]

CCS(=O)(=O)c1cc(-n2cnc(Cl)n2)cnc1-c1nc2cc(C(F)(F)F)n(C3CC3)c(=O)c2n1C [Compound A34, 2-[5-(3-chloro-1,2,4-triazol-1-yl)-3-ethylsulfonyl-2-pyridyl]-5-cyclopropyl-3-methyl-6-(trifluoromethyl)imidazo[4,5-c]pyridin-4-one]
≥ 80%: percent effect (mortality or growth inhibition) at 200 ppm [1] | percent effect (mortality or growth inhibition) at 200 ppm [2] | mortality at 200 ppm [5] | mortality at 200 ppm [6] | percent effect (mortality or growth inhibition) at 200 ppm [3] | percent control (mortality, anti-feedant effect or growth inhibition) at 200 ppm [4] | percent effect (mortality, anti-feeding or growth inhibition) at 12.5 ppm [7]

CCS(=O)(=O)c1cc(-c2cc(F)cc(F)c2)cnc1-c1nc2cc(C(F)(F)F)n(C3CC3)c(=O)c2n1C [Compound A6, 5-cyclopropyl-2-[5-(3,5-difluorophenyl)-3-ethylsulfonyl-2-pyridyl]-3-methyl-6-(trifluoromethyl)imidazo[4,5-c]pyridin-4-one]
≥ 80%: mortality at 200 ppm [8] | percent effect (mortality or growth inhibition) at 200 ppm [1] | percent effect (mortality or growth inhibition) at 200 ppm [2] | mortality at 200 ppm [5] | mortality at 200 ppm [6] | percent effect (mortality or growth inhibition) at 200 ppm [3] | percent control (mortality, anti-feedant effect or growth inhibition) at 200 ppm [4] | percent effect (mortality, anti-feeding or growth inhibition) at 12.5 ppm [7] | mortality at 200 ppm [9]

CCS(=O)(=O)c1cc(C2(C#N)CC2)cnc1-c1nc2cc(C(F)(F)F)n(C3CC3)c(=O)c2n1C [Compound A31, 1-[6-[5-cyclopropyl-3-methyl-4-oxo-6-(trifluoromethyl)imidazo[4,5-c]pyridin-2-yl]-5-ethylsulfonyl-3-pyridyl]cyclopropanecarbonitrile]
≥ 80%: mortality at 200 ppm [8] | percent effect (mortality or growth inhibition) at 200 ppm [1] | percent effect (mortality or growth inhibition) at 200 ppm [2] | mortality at 200 ppm [5] | mortality at 200 ppm [6] | mortality at 24 ppm [10] | percent effect (mortality or growth inhibition) at 200 ppm [3] | percent control (mortality, anti-feedant effect or growth inhibition) at 200 ppm [4] | percent effect (mortality, anti-feeding or growth inhibition) at 12.5 ppm [7] | mortality at 200 ppm [11] | mortality at 200 ppm [9]

CCS(=O)(=O)c1cc(-c2cc(C(F)(F)F)ccn2)cnc1-c1nc2cc(C(F)(F)F)n(C3CC3)c(=O)c2n1C [Compound A7, 5-cyclopropyl-2-[3-ethylsulfonyl-5-[4-(trifluoromethyl)-2-pyridyl]-2-pyridyl]-3-methyl-6-(trifluoromethyl)imidazo[4,5-c]pyridin-4-one]
≥ 80%: mortality at 200 ppm [8] | percent effect (mortality or growth inhibition) at 200 ppm [1] | percent effect (mortality or growth inhibition) at 200 ppm [2] | mortality at 200 ppm [5] | mortality at 200 ppm [6] | percent effect (mortality or growth inhibition) at 200 ppm [3] | percent control (mortality, anti-feedant effect or growth inhibition) at 200 ppm [4]

CCS(=O)(=O)c1cc(Br)cnc1-c1nc2cc(C(F)(F)F)n(C3CC3)c(=O)c2n1C [Compound A5, 2-(5-bromo-3-ethylsulfonyl-2-pyridyl)-5-cyclopropyl-3-methyl-6-(trifluoromethyl)imidazo[4,5-c]pyridin-4-one]
≥ 80%: mortality at 200 ppm [8] | percent effect (mortality or growth inhibition) at 200 ppm [1] | percent effect (mortality or growth inhibition) at 200 ppm [2] | mortality at 200 ppm [6] | percent effect (mortality or growth inhibition) at 200 ppm [3] | percent control (mortality, anti-feedant effect or growth inhibition) at 200 ppm [4] | percent effect (mortality, anti-feeding or growth inhibition) at 12.5 ppm [7] | mortality at 200 ppm [9]

CCS(=O)(=O)c1cc(C(F)(F)F)cnc1-c1nc2cc(C(F)(F)F)n(C3CC3)c(=O)c2n1C [Compound A1, 5-cyclopropyl-2-[3-ethylsulfonyl-5-(trifluoromethyl)-2-pyridyl]-3-methyl-6-(trifluoromethyl) imidazo[4,5-c]pyridin-4-one]
≥ 80%: mortality at 200 ppm [8] | percent effect (mortality or growth inhibition) at 200 ppm [1] | percent effect (mortality or growth inhibition) at 200 ppm [2] | mortality at 200 ppm [5] | mortality at 200 ppm [6] | percent effect (mortality or growth inhibition) at 200 ppm [3] | percent control (mortality, anti-feedant effect or growth inhibition) at 200 ppm [4] | percent effect (mortality, anti-feeding or growth inhibition) at 12.5 ppm [7] | mortality at 200 ppm [9]
